Measured values: patent publication US20030232871A1 (priority 2002, published 2003)
“Also recorded” adds a separate entry of the source.

Tests used:
[1] = True density by helium pycnometry; type: physicochemical
[2] = Moisture sorption (Dynamic Vapor Water Sorption analyzer); type: physicochemical; conditions: 25° C.; for hygroscopicity compared with Form A: up to about 80% RH
Protocol: Moisture sorption data were collected at 25° C. from 0% to 80% RH using a Surface Measurement Systems Dynamic Vapor Water Sorption analyzer. The equilibrium window was for a dm/dT of 0.0003 or a maximum time of 120 minutes.

[3] = Solution calorimetry (heat of solution); type: physicochemical; conditions: LT form / Form A pair
[4] = Thermodynamic parameters from eutectic melting data (ΔG−T and ΔG/T−1/T plots); type: physicochemical; conditions: for Tt (transition temperature): LT form to HT = Form A, calculated as Tt=ΔH/ΔS; for ΔH / ΔS: transition of low temperature form (LT) to HT = Form A, derived from eutectic melting data
Protocol: Based on the Heat of Transition Rule both Forms B and E are believed to be enantiotropically related to Form A, meaning there is a change in the stability relationship between the forms around a transition temperature Tt. Determination of Tt for Forms B and E with respect to Form A was performed by the use of eutectic melting data. Eutectics were formed between a reference compound (RC) and each of Forms A, B and E of parecoxib sodium. Subsequently heat of fusion data were used to derive the free energy difference between the crystal forms at the eutectic temperature (equation I): xej(Gj-Gi)Tei=Δ[…])]} (equation I) wherein xej and xei are the mole fraction of crystal forms j and i respectively in the eutectic; (Gj-Gi) is the free energy difference between crystal forms i and j at Tei; ΔHmej and ΔHmei are the enthalpy of eutectic melting of crystal forms j and i respectively; Tei and Tej are the temperatures of eutectic melting of crystal forms i and j respectively; ΔCpij is the heat capacity change across the eutectic melt; and R is the ideal gas constant. […] By definition, the free energy difference between crystal forms is zero at the transition temperature. The transition temperature given in Table 5 above was calculated according to equation II: Tt=ΔH/ΔS (equation II)

COX-1 = COX-1 (Homo sapiens, UniProt P23219); conditions: background statement; cited from earlier work
Chain of COX-1 (P23219 24-599): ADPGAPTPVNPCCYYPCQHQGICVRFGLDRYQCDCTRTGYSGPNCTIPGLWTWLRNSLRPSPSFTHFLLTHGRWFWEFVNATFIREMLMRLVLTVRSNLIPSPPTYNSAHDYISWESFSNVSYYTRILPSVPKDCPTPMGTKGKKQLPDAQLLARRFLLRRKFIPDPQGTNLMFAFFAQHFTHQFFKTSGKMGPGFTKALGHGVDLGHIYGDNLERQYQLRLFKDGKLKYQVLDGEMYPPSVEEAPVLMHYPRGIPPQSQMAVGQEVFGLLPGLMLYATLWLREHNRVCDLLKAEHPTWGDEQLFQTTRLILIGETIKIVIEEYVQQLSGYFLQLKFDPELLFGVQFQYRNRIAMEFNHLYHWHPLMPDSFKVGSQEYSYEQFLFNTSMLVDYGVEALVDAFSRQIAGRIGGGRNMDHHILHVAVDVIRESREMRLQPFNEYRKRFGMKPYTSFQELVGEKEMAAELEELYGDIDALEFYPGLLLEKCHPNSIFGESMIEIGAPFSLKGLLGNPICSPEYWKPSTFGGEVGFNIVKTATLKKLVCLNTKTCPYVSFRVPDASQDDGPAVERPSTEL

SMILES | true density [1] [g/mL] | moisture sorbed ([2]; 0-60% RH range) | behaviour above 60% RH ([2]; above 60% RH) | ΔH from heat of solution data [3] [kcal/mol] | Tt (transition temperature) [4] [°C] | ΔH [4] [kcal/mol] | ΔS [4] [J/mole/K] | hygroscopicity compared with Form A [2] | in vitro inhibitory activity against COX-1 (COX-1)
CCC(=O)[N-]S(=O)(=O)c1ccc(-c2c(-c3ccccc3)noc2C)cc1.[Na+] [Form A, parecoxib sodium] | 1.34 ± 0.01 | less than 1% | deliquesced; also recorded: greater tendency to sorb water and even to deliquesce |  |  |  |  |  | 
CCC(=O)[N-]S(=O)(=O)c1ccc(-c2c(-c3ccccc3)noc2C)cc1.[Na+] [Form E, parecoxib sodium] | 1.42 ± 0.01 |  |  | 4.288 | 163.9 | 4.099 | 39.2 | less hygroscopic than Form A | 
CCC(=O)NS(=O)(=O)c1ccc(-c2c(-c3ccccc3)noc2C)cc1 [Parecoxib] |  |  |  |  |  |  |  |  | weak
CCC(=O)[N-]S(=O)(=O)c1ccc(-c2c(-c3ccccc3)noc2C)cc1.[Na+] [Form B, parecoxib sodium] | 1.46 ± 0.01 |  |  | 3.666 | 163.3 | 3.975 | 38.1 | less hygroscopic than Form A | 
Cc1onc(-c2ccccc2)c1-c1ccc(S(N)(=O)=O)cc1 [valdecoxib] |  |  |  |  |  |  |  |  | weak
